Laboratory results: patent publication US20110046101A1, “BATE-LACTAMASE INHIBITORS” (priority 2008, published 2011)
“And” between values parts separate entries of the source, which are not always exact repeats. Equal entries are not always repeated. Where two headings read alike, the source gives them in different places.

How the values were obtained:
[1] = molecular target: T1, IMP-1 (Serratia marcescens, UniProt P52699); assay: biochemical; details: for IC50: IC50 (μM) class B IMP-1, nitrocefin 100 μM, 50 mM Hepes pH 7.3
T1 construct: made in house; host or cells: E. coli (pCIP4 plasmid from Dr. M. Galleni)
T1 sequence (P52699 19-246 limits assumed): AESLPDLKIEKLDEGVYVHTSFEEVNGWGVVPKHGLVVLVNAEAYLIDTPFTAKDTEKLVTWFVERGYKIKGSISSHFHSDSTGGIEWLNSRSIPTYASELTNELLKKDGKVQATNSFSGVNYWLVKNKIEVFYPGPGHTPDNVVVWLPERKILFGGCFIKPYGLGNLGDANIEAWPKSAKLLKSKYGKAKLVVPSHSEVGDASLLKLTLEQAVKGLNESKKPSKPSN
Protocol: (§1) Compounds of the present application were evaluated as inhibitors of two Class B β-lactamases (IMP-1 and VIM-2) and two Class D β-lactamases OXA-10 and OXA-45).
IMP-1 was overexpressed in E. coli using the pCIP4 plasmid encoding IMP-1 which was obtained from Dr. M. Galleni, Université de Liège, B-4000 Liege, Belgium, and was purified as described by Laraki, N. et al., Antimicrob. Agents Chemother. 1999 43, 902-906.
(§2) Two methods were used for measurement of β-lactamase activity, based on the use of the substrate nitrocefin. The first was carried out in a cuvette (final volume 1 ml, 25° C.) with the aid of a Cary 5 spectrophotometer, and second was with the use of a Molecular Devices Spectramax 190 96 well plate reader (final volume 100 μl, 30° C.).
(§3) All assays were performed in the appropriate buffer for the enzyme: (i) IMP-1, VIM-2: 50 mM Hepes pH 7.3, 1 μg/ml BSA, 1 μM ZnSO4; (ii) OXA-45: 100 mM Na Phosphate/25 mM NaCO3 pH 7.0, 1 μg/ml BSA; and (iii) OXA-10: 100 mM Na Phosphate/25 mM NaCO3 pH 7.0. Enzyme concentrations were chosen so that a reasonable rate of reaction was observed. Inhibitors were dissolved in DMSO, with the final concentration of DMSO in the assay being 1%. Nitrocefin was dissolved in DMSO and diluted in 50 mM Hepes pH 7.3 with the final concentration in the assay being 100 μM. The enzyme was allowed to react with the inhibitor for a predetermined time followed by addition of substrate to initiate the reaction, which was monitored for an increase in absorbance at 482 nm. IC50 values were determined by plotting percent loss of initial activity vs log inhibitor concentration. Controls were run to ensure that there was minimal loss of activity with DMSO (<10%). When inhibition by DMSO was noted, 0.5 M NaCl was added to stabilize the enzyme.

[2] = molecular target: OXA-45 (Pseudomonas aeruginosa, UniProt Q7WZC7); assay: β-lactamase inhibition assay with nitrocefin substrate, OXA-45; format: biochemical
OXA-45, sequence (Q7WZC7 entry or part of it): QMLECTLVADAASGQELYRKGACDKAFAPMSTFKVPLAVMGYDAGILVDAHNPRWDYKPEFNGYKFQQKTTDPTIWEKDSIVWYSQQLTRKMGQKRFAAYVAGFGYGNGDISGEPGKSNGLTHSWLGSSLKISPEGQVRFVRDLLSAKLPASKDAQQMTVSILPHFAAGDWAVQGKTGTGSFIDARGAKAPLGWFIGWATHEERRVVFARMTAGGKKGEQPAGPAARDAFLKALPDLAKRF
Protocol: as §1
OXA-45 was a gift from Dr. J. Spencer, University of Bristol, and had been prepared and purified as described by Toleman, M. A. et al., Antimicrob. Agents Chemother. 2003, 47, 2859-2863.
as §2, §3

[3] = molecular target: T2, VIM-2 (Escherichia coli, UniProt Q5U7L7); assay: biochemical; format: biochemical
T2 construct: made in house; host or cells: E. coli DH10B (pNOR,2001 plasmid from Dr. P. Nordmann)
Protocol: as §1
VIM-2 was overexpressed in E. coli (DH10B) containing the pNOR,2001 plasmid, encoding VIM-2, which was provided by Dr. P. Nordmann, Universite de Paris, and was purified as described by Poirel et al., Antimicrob. Agents Chemother. 2000, 44, 891-897.
as §2, §3

[4] = molecular target: T3, OXA-10 (Pseudomonas aeruginosa, UniProt P14489); assay: biochemical; format: biochemical
T3 construct: made in house; host or cells: E. coli (pEt24a(+) plasmid from Dr. S. Mobashery)
T3 sequence (P14489 20-266): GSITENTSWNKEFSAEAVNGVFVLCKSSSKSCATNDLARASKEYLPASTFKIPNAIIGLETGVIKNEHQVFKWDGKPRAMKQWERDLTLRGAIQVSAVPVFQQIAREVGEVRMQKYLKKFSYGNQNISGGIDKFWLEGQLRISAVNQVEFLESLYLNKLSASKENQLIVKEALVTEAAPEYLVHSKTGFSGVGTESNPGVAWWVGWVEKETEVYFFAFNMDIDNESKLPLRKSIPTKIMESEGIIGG
Protocol: as §1
OXA-10 was overexpressed in E. coli using the pEt24a(+) plasmid, encoding OXA-10, which was provided by Dr. S. Mobashery, University of Notre Dame, and was purified as described by Golemi et al., J. Am. Chem. Soc. 2000, 122, 6132-6133.
as §2, §3

[5] = tested on: Stenotrophomonas maltophilia strain 92-00626 (produces metallo β-lactamase L1); assay: Agar dilution MIC, synergy with pipericillin, S. maltophilia; format: cell-based; details: S. maltophilia strain 92-00626 (L1), compound at ¼ the concentration of the antibiotic, 18 h
Protocol: (§4) Such compounds were expected to enhance the potency of a clinically useful β-lactam antibiotic against clinical isolates of human pathogenic bacteria which are highly resistant to β-lactam antibiotics. Certain β-lactamase inhibitors were tested to determine whether or not they would have a synergistic effect on the antibacterial activity of pipericillin against β-lactam antibiotic resistant bacterial clinical isolates using the Agar Dilution Method.
(§5) Bacterial colonies were taken from overnight blood agar plates, and sterile saline was inoculated to make a 0.5 McFarland suspension inoculum and further diluted such that the 10^4 CFU spots were delivered to the MHA (Oxoid) surface. Inhibitor samples were dissolved in DMSO and administered at a pipericillin:compound ratio of 4:1 (wt/wt). The plates were incubated at 35° C. and read after 18 h of incubation. MICs were measured by agar dilution on Mueller-Hinton II agar (BD Microbiology Systems, Cockeysville, Md., USA), as recommended by the NCCLS (National Committee for Clinical Laboratory Standards. (2003).Performance Standards for Antimicrobial Susceptibility Testing.)

[6] = tested on: Pseudomonas aeruginosa strain 81-11963 (produces metallo β-lactamase VIM-2); assay: Agar dilution MIC, synergy with pipericillin, P. aeruginosa; format: cell-based; details: P. aeruginosa strain 81-11963 (VIM-2), compound at ¼ the concentration of the antibiotic, 18 h
Protocol: as §4, §5

[7] = nitrocefin 100 μM, 100 mM Na Phosphate/25 mM NaCO3 pH 7.0, read-out: IC50 (μM) class D OXA-45

## CC(C)(C)c1ccc(C(=O)N/N=C/c2c3ccccc3cc3ccccc23)cc1 [Compound 1, N′-(Anthracen-9-ylmethylene)-4-t-butylbenzohydrazide]
[1]
  IC50: 0.9 µM and 0.91 µM

## O=C(N/N=C/c1ccccc1O)c1cccnc1 [Compound 13, N′-(2-Hydroxybenzylidene)nicotinohydrazide]
[2]
  IC50: > 100 µM
[1]
  IC50: > 100 µM
[3]
  IC50: > 100 µM
[4]
  IC50: > 100 µM

## O=C(N/N=C/c1ccccc1O)c1ccncc1 [Compound 14, N′-(2-Hydroxybenzylidene)isonicotinohydrazide]
[2]; [7]
  IC50: > 100 µM
[1]
  IC50: > 100 µM
[3]
  IC50: > 100 µM
[4]
  IC50: > 100 µM

## CC(C)(C)c1ccc(C(=O)N/N=C/c2ccccc2[N+](=O)[O-])cc1 [Compound 12, 4-t-Butyl-N′-(2-nitrobenzylidene)benzohydrazide]
[2]; [7]
  IC50: > 10 µM
[1]
  IC50: > 10 µM
[3]
  IC50: > 10 µM
[4]
  IC50: > 10 µM

## CC(C)(C)c1ccc(C(=O)N/N=C/c2ccccc2O)cc1 [Compound 5, 4-t-Butyl-N′-(2-hydroxybenzylidene)benzohydrazide]
[5]
  diminution in the MIC value found for pipericillin: greater than 4 fold
[2]
  inhibition of OXA-45 (in words): inhibited
[2]; [7]
  IC50: 28 µM
[1]
  inhibition of IMP-1 (in words): inhibited
  IC50: 9 µM
[3]
  IC50: 18 µM
  inhibition of VIM-2 (in words): inhibited
[4]
  IC50: 12.8 µM
  inhibition of OXA-10 (in words): inhibited

## CC(C)(C)c1ccc(C(=O)N/N=C/c2ccc3c(c2)OCO3)cc1 [Compound 11, N′-(Benzo[d][1,3]dioxol-5-ylmethylene)-4-t-butylbenzohydrazide]
[2]
  IC50: > 10 µM
[1]
  IC50: > 10 µM
[3]
  IC50: > 10 µM
[4]
  IC50: > 10 µM

## O=C(N/N=C/c1ccccc1O)c1cc2ccccc2cc1O [Compound 3, 3-Hydroxy-N′-(2-hydroxybenzylidene)-2-naphthohydrazide]
[2]
  inhibition of OXA-45 (in words): inhibited
[2]; [7]
  IC50: 0.25 µM
[1]
  inhibition of IMP-1 (in words): inhibited
  IC50: 8.3 µM
[3]
  IC50: 18.2 µM
  inhibition of VIM-2 (in words): inhibited
[6]
  diminution in the MIC value found for pipericillin: greater than 4 fold
[4]
  IC50: 3.9 µM
  inhibition of OXA-10 (in words): inhibited

## O=C(N/N=C/c1ccccc1O)c1ccccc1O [Compound 15, 2-Hydroxy-N′-(2-hydroxybenzylidene)benzohydrazide]
[2]; [7]
  IC50: > 40 µM
[1]
  IC50: > 40 µM
[3]
  IC50: > 40 µM
[4]
  IC50: > 40 µM

## O=C(N/N=C/c1ccccc1O)c1ccc2ccccc2c1 [Compound 2, N′-(2-Hydroxybenzylidene)-2-naphthohydrazide]
[2]
  IC50: 1.8 µM
  inhibition of OXA-45 (in words): inhibited
[1]
  inhibition of IMP-1 (in words): inhibited
  IC50: 38.3 µM
[3]
  IC50: 35.1 µM
  inhibition of VIM-2 (in words): inhibited
[4]
  IC50: 15.2 µM
  inhibition of OXA-10 (in words): inhibited

## CC(C)(C)c1ccc(C(=O)N/N=C/c2cccc(Oc3ccccc3)c2)cc1 [Compound 8, 4-t-Butyl-N′-(3-phenoxybenzylidene)benzohydrazide]
[2]
  IC50: 4.3 µM
[1]
  IC50: 6.7 µM
[3]
  IC50: 23.9 µM
[4]
  IC50: 10.3 µM

## CC(C)(C)c1ccc(C(=O)N/N=C/c2ccccc2OCc2ccccc2)cc1 [Compound 10, N′-(2-(Benzyloxy)benzylidene)-4-t-butylbenzohydrazide]
[2]; [7]
  IC50: > 10 µM
[1]
  IC50: 4.7 µM
[3]
  IC50: > 10 µM
[4]
  IC50: > 10 µM

## O=C(N/N=C/c1c2ccccc2cc2ccccc12)c1cc2ccccc2cc1O [Compound 6, N′-(Anthracen-9-ylmethylene)-3-hydroxy-2-naphthohydrazide]
[2]; [7]
  IC50: 0.57 µM
[1]
  IC50: 1.02 µM
[3]
  IC50: 12.3 µM
[4]
  IC50: 2.8 µM

## O=C(N/N=C/c1cccc(Oc2ccccc2)c1)c1cc2ccccc2cc1O [Compound 7, 3-Hydroxy-N-(3-phenoxybenzylidene)-2-naphthohydrazide]
[2]
  IC50: 0.56 µM
[1]
  IC50: 7 µM
[3]
  IC50: 8.5 µM
[4]
  IC50: 1.8 µM

## CC(C)(C)c1ccc(C(=O)N/N=C/c2c(O)ccc3ccccc23)cc1 [Compound 4, 4-t-Butyl-N′-((2-hydroxynaphthalen-1-yl)methylene)benzohydrazide]
[2]
  inhibition of OXA-45 (in words): inhibited
[2]; [7]
  IC50: 1.7 µM
[1]
  inhibition of IMP-1 (in words): inhibited
  IC50: 3 µM
[3]
  IC50: 9 µM
  inhibition of VIM-2 (in words): inhibited
[4]
  IC50: 1.7 µM
  inhibition of OXA-10 (in words): inhibited
